Consider 20 compounds from ChEMBL document CHEMBL4270546, “A novel Anti-Cancer Stem Cells compound optimized from the natural symplostatin 4 scaffold inhibits Wnt/β-catenin signaling pathway” (Eur J Med Chem, 2018).

SMILES strings stand for the structures.

Common to all, as to type: functional, cell-based
In one test the test system is MCF7. The test is described as follows: Antiproliferative activity against human MCF7 cells after 48 hrs by MTT assay. To be noted: MCF7, 48 h. (In general: Tetrazolium assays rely on reduction of a dye to a coloured formazan, in cell work by metabolically active cells.)
The next test deals with MDA-MB-231. The test is described as follows: Antiproliferative activity against human MDA-MB-231 cells after 48 hrs by MTT assay. The settings on record: MDA-MB-231, 48 h.
The next test deals with 4T1. The test is described as follows: Antiproliferative activity against mouse 4T1 cells after 48 hrs by MTT assay. To be noted: 4T1, 48 h.
The next test has as its system A-375. The test is described as follows: Antiproliferative activity against human A375 cells after 48 hrs by MTT assay. To be noted: A-375, 48 h.
The test system of a further test is B16-F10. The test is described as follows: Antiproliferative activity against mouse B16F10 cells after 48 hrs by MTT assay. The settings on record: B16-F10, 48 h.
In a further test the test system is PANC-1. In words: Antiproliferative activity against human PANC1 cells after 48 hrs by MTT assay. The settings on record: PANC-1, 48 h.
Another test relates to A549. The test is described as follows: Antiproliferative activity against human A549 cells after 48 hrs by MTT assay. To be noted: A549, 48 h.
The subject of the next test is HeLa. The test is described as follows: Antiproliferative activity against human HeLa cells.
The subject of another test is HT-29. The test is described as follows: Antiproliferative activity against human HT-29 cells.

Turning to `CC[C@H](C)[C@@H](C(=O)O[C@@H](CC(C)C)C(=O)N[C@@H](CC(C)C)C(=O)N[C@@H](C)/C=C/C(=O)N(CC)CC)N(C)C`, the IC50 with MCF7, in the test with MDA-MB-231, in the test with 4T1, in the test with A-375, in the test on B16-F10 and in the test on PANC-1 was above 100 µM in each case. For the same compound, the IC50 with A549 is above 100 µM.
`CC[C@H](C)[C@@H](C(=O)N[C@@H](CC(C)C)C(=O)N[C@@H](CC(C)C)C(=O)N[C@@H](C)/C=C/C(=O)N1C(=O)C=C(OC)[C@@H]1C(C)C)N(C)C`: the concentration for half-maximal inhibition (IC50) in the test with MCF7 was above 100 µM; with MDA-MB-231 it was 98.3 µM; in the test on 4T1 it was 27.6 µM; in the test with A-375 it was 35.7 µM; in the test on B16-F10, 61.6 µM; in the test on PANC-1 it was 36 µM. In the test on A549, this compound came in with an IC50 of 52.5 µM.
Take `CC[C@H](C)[C@@H](C(=O)O[C@@H](CC(C)C)C(=O)N[C@@H](CC(C)C)C(=O)N[C@@H](C)/C=C/C(=O)N1C(=O)C=C(OC)[C@@H]1C)N(C)C` [GALLINAMIDE A]: the IC50 with HeLa was found to be 12 µM; with HT-29, 53 µM; in the test on MCF7 it was 45.5 µM; in the test on MDA-MB-231, 34.9 µM; in the test on 4T1 it was 34.6 µM; with A-375 it was 45.6 µM. For the same compound, the IC50 worked out at 59.7 µM with B16-F10, 31.2 µM with PANC-1 and 40.4 µM in the test on A549.
As for `CC[C@H](C)[C@H](NC(=O)OCc1ccccc1)C(=O)N[C@@H](CC(C)C)C(=O)N[C@@H](CC(C)C)C(=O)N[C@@H](C)/C=C/C(=O)N1C(=O)C=C(OC)[C@@H]1C`, the half-inhibitory concentration (IC50) in the test on MCF7 was determined as 4.66 µM; in the test on MDA-MB-231, 1.96 µM; in the test on 4T1, 1.92 µM; in the test with A-375, 1.35 µM; in the test with B16-F10, 0.892 µM; in the test on PANC-1, 0.787 µM. For the same compound, in the test on A549, the concentration for half-maximal inhibition (IC50) was determined as 15.1 µM.
For the compound `CC[C@H](C)[C@@H](C(=O)O[C@@H](CC(C)C)C(=O)N[C@@H](CC(C)C)C(=O)N[C@@H](C)/C=C/C(=O)N1CCOCC1)N(C)C`, the half-inhibitory concentration (IC50) in the test on MCF7, in the test with MDA-MB-231, in the test with 4T1, with A-375, in the test on B16-F10 and with PANC-1 was above 100 µM throughout. Further, the half-inhibitory concentration (IC50) in the test on A549 was above 100 µM.
Turning to `CC[C@H](C)[C@H](NC(=O)OCc1ccccc1)C(=O)O[C@@H](CC(C)C)C(=O)N[C@@H](CC(C)C)C(=O)N[C@@H](C)/C=C/C(=O)N1C(=O)C=C(OC)[C@@H]1C`, the IC50 was 32.9 µM in the test on MCF7; 15.6 µM in the test on MDA-MB-231; 15 µM with 4T1; 5.49 µM in the test with A-375; 4.23 µM in the test with B16-F10; 14 µM in the test with PANC-1. The compound also registered a concentration for half-maximal inhibition (IC50) in the test with A549 of 13.8 µM.
For the compound `CC[C@H](C)[C@H](NC(=O)Nc1ccc(OC)cc1)C(=O)N[C@@H](CC(C)C)C(=O)N[C@@H](CC(C)C)C(=O)N[C@@H](C)/C=C/C(=O)N1C(=O)C=C(OC)[C@@H]1C(C)C`, the half-maximal inhibitory concentration (IC50) was 10.1 µM with MCF7; 25.1 µM in the test on MDA-MB-231; 35.3 µM in the test with 4T1; 44.2 µM in the test with A-375; 60.5 µM with B16-F10; above 100 µM in the test on PANC-1. In the test on A549, this compound displayed an IC50 of 20.8 µM.
As to `COC1=CC(=O)N(C(=O)/C=C/[C@H](C)NC(=O)[C@H](CC(C)C)N(C)C)[C@H]1Cc1ccccc1`, the half-maximal inhibitory concentration (IC50) was above 100 µM with MCF7; 57.7 µM in the test on MDA-MB-231; above 100 µM in the test with 4T1; above 100 µM in the test on A-375; above 100 µM in the test with B16-F10; 67 µM with PANC-1. This compound yielded an IC50 in the test with A549 above 100 µM.
As for `C#CCCC(=O)N[C@H](C(=O)N[C@@H](CC(C)C)C(=O)N[C@@H](CC(C)C)C(=O)N[C@@H](C)/C=C/C(=O)N1C(=O)C=C(OC)[C@@H]1C(C)C)[C@@H](C)CC`, the IC50 in the test on MCF7 turned out to be 14.9 µM; in the test on MDA-MB-231, 22.2 µM; in the test on 4T1 it was 20.1 µM; in the test on A-375, 9.89 µM; in the test with B16-F10, 7.07 µM; in the test on PANC-1, 5.21 µM. In the test with A549, this compound displayed a half-maximal inhibitory concentration (IC50) of 36.2 µM.
`CC[C@H](C)[C@H](NC(=O)Cc1cccc(C(F)(F)F)c1)C(=O)N[C@@H](CC(C)C)C(=O)N[C@@H](CC(C)C)C(=O)N[C@@H](C)/C=C/C(=O)N1C(=O)C=C(OC)[C@@H]1C(C)C`: the IC50 in the test with MCF7 is 11.2 µM; in the test on MDA-MB-231 it was 32.8 µM; in the test with 4T1, 40.8 µM; in the test with A-375, 15.2 µM; with B16-F10 it was 15.2 µM; in the test with PANC-1, 11.6 µM. This compound also gave an IC50 in the test on A549 of 14.6 µM.
Turning to `CC[C@H](C)[C@@H](C(=O)O[C@@H](CC(C)C)C(=O)N[C@@H](CC(C)C)C(=O)N[C@@H](C)/C=C/C(=O)NC(C)(C)C)N(C)C`, the IC50 in the test with MCF7 was above 100 µM; in the test on MDA-MB-231, above 100 µM; in the test on 4T1 it was above 100 µM; in the test with A-375, above 100 µM; in the test with B16-F10 it was above 100 µM; in the test with PANC-1, 38.3 µM. Also, in the test on A549, the 50% inhibitory concentration (IC50) was above 100 µM.
Consider `CC[C@H](C)[C@H](NC(=O)OCc1ccccc1)C(=O)O[C@@H](CC(C)C)C(=O)N[C@@H](CC(C)C)C(=O)N[C@@H](C)/C=C/C(=O)N1C(=O)C=C(OC)[C@@H]1C(C)C`, for which the 50% inhibitory concentration (IC50) in the test with MCF7 turned out to be 21.2 µM; in the test with MDA-MB-231, 12.8 µM; with 4T1 it was 27.9 µM; in the test with A-375 it was 13.7 µM; with B16-F10 it was 24.9 µM; with PANC-1, 19.6 µM. Moreover, in the test on A549, 27.5 µM corresponded to half-maximal inhibition (IC50).
For `CC[C@H](C)[C@H](NC(=O)OCc1ccccc1)C(=O)O[C@@H](CC(C)C)C(=O)N[C@@H](CC(C)C)C(=O)N[C@@H](C)/C=C/C(=O)N1C(=O)C=C(OC)[C@@H]1Cc1ccccc1`, the half-maximal inhibitory concentration (IC50) was above 100 µM in the test on MCF7; above 100 µM in the test with MDA-MB-231; 79.8 µM in the test on 4T1; 45.9 µM in the test on A-375; 30.1 µM in the test on B16-F10; 59.3 µM with PANC-1. The same compound yielded an IC50 in the test on A549 of 41.4 µM.
As to `COC1=CC(=O)N(C(=O)/C=C/[C@H](C)NC(=O)[C@H](CC(C)C)N(C)C)[C@H]1C`, the IC50 came to 75.1 µM in the test with MCF7; 79.7 µM in the test with MDA-MB-231; 19.2 µM with 4T1; 11.4 µM in the test with A-375; 29.2 µM with B16-F10; 82.1 µM in the test with PANC-1. In addition, the concentration for half-maximal inhibition (IC50) with A549 stood at 30 µM.
For the compound `CC[C@H](C)[C@@H](C(=O)N[C@@H](CC(C)C)C(=O)N[C@@H](CC(C)C)C(=O)N[C@@H](C)/C=C/C(=O)N1C(=O)C=C(OC)[C@@H]1C)N(C)C`, the half-inhibitory concentration (IC50) in the test on MCF7 came out at 38.9 µM; in the test with MDA-MB-231 it was 38.2 µM; in the test on 4T1 it was 16.5 µM; in the test on A-375, 11.2 µM; in the test on B16-F10, 15.1 µM; in the test with PANC-1 it was 15.7 µM. In the test with A549, this compound returned a 50% inhibitory concentration (IC50) of 50.5 µM.
With `CC[C@H](C)[C@@H](C(=O)O[C@@H](CC(C)C)C(=O)N[C@@H](CC(C)C)C(=O)N[C@@H](C)/C=C/C(=O)OC)N(C)C`, the concentration for half-maximal inhibition (IC50) in the test on MCF7, with MDA-MB-231, in the test on 4T1, in the test with A-375, in the test with B16-F10 and in the test on PANC-1 was above 100 µM each time. In addition, the concentration for half-maximal inhibition (IC50) in the test on A549 was above 100 µM.
`CC[C@H](C)[C@H](NC(=O)OCc1ccccc1)C(=O)N[C@@H](CC(C)C)C(=O)N[C@@H](CC(C)C)C(=O)N[C@@H](C)/C=C/C(=O)N1C(=O)C=C(OC)[C@@H]1c1c[nH]c2ccccc12`: the IC50 in the test with MCF7, in the test on MDA-MB-231, with 4T1, in the test with A-375, with B16-F10 and in the test with PANC-1 was above 100 µM in each case. Besides, the half-maximal inhibitory concentration (IC50) in the test with A549 was above 100 µM.
`COC1=CC(=O)N(C(=O)/C=C/[C@H](C)NC(=O)[C@H](CC(C)C)N(C)C)[C@H]1C(C)C`: the IC50 with MCF7 is 18.6 µM; with MDA-MB-231, 89.5 µM; with 4T1, above 100 µM; in the test on A-375, 7.56 µM; with B16-F10, 30.5 µM; with PANC-1, 12.8 µM. In the test with A549, this compound displayed an IC50 above 100 µM.
As to `COC1=CC(=O)N(C(=O)/C=C/[C@H](C)NC(=O)[C@H](CC(C)C)N(C)C)[C@@H]1Cc1ccccc1`, the IC50 in the test on MCF7 is above 100 µM; in the test on MDA-MB-231 it was 94.8 µM; in the test on 4T1, above 100 µM; in the test with A-375, above 100 µM; in the test on B16-F10 it was above 100 µM; in the test on PANC-1 it was 86.9 µM. The compound also had a half-inhibitory concentration (IC50) with A549 above 100 µM.
`CC[C@H](C)[C@H](NC(=O)OCc1ccccc1)C(=O)N[C@@H](CC(C)C)C(=O)N[C@@H](CC(C)C)C(=O)N[C@@H](C)/C=C/C(=O)N1C(=O)C=C(OC)[C@@H]1Cc1ccccc1`: the IC50 in the test on MCF7, in the test with MDA-MB-231, with 4T1, with A-375, in the test with B16-F10 and in the test with PANC-1 was above 100 µM each time. Further, the IC50 in the test on A549 was above 100 µM.

For orientation: IC50 means the concentration that gives 50% inhibition.
